According to ChEMBL document CHEMBL1201862, “PubChem BioAssay data set” (2004):
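Where inhibition never reached the appropriate level, the endpoint shown equals the highest concentration tested. Otherwise, values were interpolated linearly from a five-concentration, 48-hour dose response in 96-well plates. GI50 is the concentration that inhibits growth by half.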 The source made the active and inactive calls. Cut-off read from the data, not from the text of the source: active = GI50 up to about 1.1 µM and inactive = higher.

Key:
Assay in all cases: NCI-60 cell line screen, 48 h
NCI-H23 = system: NCI-H23
786-0 = system: 786-0
KM12 = system: KM12
SK-MEL-5 = system: SK-MEL-5
SNB-75 = system: SNB-75
EKVX = system: EKVX
HCT-15 = system: HCT-15
HCT-116 = system: HCT-116
LOX IMVI = system: LOX IMVI
SF-539 = system: SF-539
SK-OV-3 = system: SK-OV-3
Hs-578T = system: Hs-578T
U-251 = system: U-251
OVCAR-4 = system: OVCAR-4
NCI/ADR-RES = system: NCI/ADR-RES
SN12C = system: SN12C
HT-29 = system: HT-29
MOLT-4 = system: MOLT-4
PC-3 = system: PC-3
NCI-H460 = system: NCI-H460
NCI-H226 = system: NCI-H226
SNB-19 = system: SNB-19
SW-620 = system: SW-620
T47D = system: T47D
A549 = system: A549
CCRF-CEM = system: CCRF-CEM
SF-268 = system: SF-268
MCF7 = system: MCF7
Malme-3M = system: Malme-3M
DU-145 = system: DU-145
IGROV-1 = system: IGROV-1
HOP-92 = system: HOP-92
UACC-62 = system: UACC-62
M14 = system: M14
NCI-H522 = system: NCI-H522
K562 = system: K562
RXF 393 = system: RXF 393
RPMI-8226 = system: RPMI-8226
OVCAR-8 = system: OVCAR-8
UACC-257 = system: UACC-257
SK-MEL-28 = system: SK-MEL-28
UO-31 = system: UO-31
OVCAR-3 = system: OVCAR-3
CAKI-1 = system: CAKI-1
HCC 2998 = system: HCC 2998
MDA-N = system: MDA-N
SK-MEL-2 = system: SK-MEL-2
BT-549 = system: BT-549
ACHN = system: ACHN
SF-295 = system: SF-295
COLO 205 = system: COLO 205
MDA-MB-231 = system: MDA-MB-231
SR = system: SR
OVCAR-5 = system: OVCAR-5
A498 = system: A498
MDA-MB-435 = system: MDA-MB-435
HL-60 = system: HL-60

CC1=C(C#N)C(=O)N(/N=C/c2ccc(Cl)cc2)C(=O)/C1=c1\o/c(=C2/C(=O)N(/N=C/c3ccc(Cl)cc3)C(=O)C(C#N)=C2C)c2nccnc12 was tested, and the GI50 (NCI-H23) was > 100 µM (inactive), the GI50 (786-0) was > 100 µM (inactive) and the GI50 (KM12) was 47.1 µM (inactive). For the same molecule, the GI50 (SK-MEL-5) was 96.6 µM (inactive), the GI50 (SNB-75) was 15.3 µM (inactive) and the GI50 (EKVX) was > 100 µM (inactive). For the same molecule, the GI50 (HCT-15) was 82 µM, the GI50 (HCT-116) was 76.7 µM (inactive) and the GI50 (LOX IMVI) was > 100 µM (inactive). The GI50 (SF-539) was > 100 µM (inactive), the GI50 (SK-OV-3) was > 100 µM (inactive) and the GI50 (Hs-578T) was 21.2 µM (inactive). The GI50 (U-251) was > 100 µM (inactive), the GI50 (OVCAR-4) was 57.5 µM (inactive) and the GI50 (NCI/ADR-RES) was > 100 µM (inactive). The GI50 (SN12C) was > 100 µM (inactive), the GI50 (HT-29) was > 100 µM (inactive) and the GI50 (MOLT-4) was 88.3 µM (inactive). For the same molecule, the GI50 (PC-3) was 60.7 µM (inactive), the GI50 (NCI-H460) was > 100 µM (inactive) and the GI50 (NCI-H226) was 78.2 µM (inactive). The GI50 (SNB-19) was > 100 µM (inactive), the GI50 (SW-620) was > 100 µM (inactive) and the GI50 (T47D) was > 100 µM (inactive). For the same molecule, the GI50 (A549) was > 100 µM (inactive), the GI50 (CCRF-CEM) was 70.3 µM (inactive) and the GI50 (SF-268) was 47.3 µM (inactive). For the same molecule, the GI50 (MCF7) was 70.5 µM (inactive), the GI50 (Malme-3M) was > 100 µM (inactive) and the GI50 (DU-145) was > 100 µM (inactive). The GI50 (IGROV-1) was > 100 µM (inactive), the GI50 (HOP-92) was > 100 µM (inactive) and the GI50 (UACC-62) was > 100 µM (inactive). The GI50 (M14) was > 100 µM (inactive), the GI50 (NCI-H522) was > 100 µM (inactive) and the GI50 (K562) was 69.7 µM (inactive). The GI50 (RXF 393) was 19.5 µM (inactive), the GI50 (RPMI-8226) was 60.7 µM (inactive) and the GI50 (OVCAR-8) was > 100 µM (inactive). For the same molecule, the GI50 (UACC-257) was > 100 µM (inactive), the GI50 (SK-MEL-28) was > 100 µM (inactive) and the GI50 (UO-31) was 85.7 µM (inactive). The GI50 (OVCAR-3) was > 100 µM (inactive), the GI50 (CAKI-1) was > 100 µM (inactive) and the GI50 (HCC 2998) was 42.2 µM (inactive). For the same molecule, the GI50 (MDA-N) was 77.3 µM (inactive), the GI50 (SK-MEL-2) was > 100 µM (inactive) and the GI50 (BT-549) was > 100 µM (inactive). For the same molecule, the GI50 (ACHN) was > 100 µM (inactive), the GI50 (SF-295) was > 100 µM (inactive) and the GI50 (COLO 205) was > 100 µM (inactive). The GI50 (MDA-MB-231) was > 100 µM (inactive), the GI50 (SR) was 80.5 µM (inactive) and the GI50 (OVCAR-5) was > 100 µM (inactive). The GI50 (A498) was > 100 µM (inactive), the GI50 (MDA-MB-435) was > 100 µM (inactive) and the GI50 (HL-60) was 84.5 µM (inactive).
